These results are taken from patent US10065928B2, “Quinolinone compound and use thereof” (Sunshine Lake Pharma Co., Ltd., priority 2014, dated 2018).

As a reminder, the pEC50 is the EC50 on a negative log10 scale, so that one unit is a factor of ten. Higher therefore signals a small EC50. A word on the AUC(0-t): it is exposure summed from dosing to a finite time, without extrapolation to infinity. Read a high AUC(0-t) as more exposure. For orientation: Cmax means the highest concentration seen after dosing. The Tmax is the time from dosing to the highest level. Usually half-life stands for how long it takes for the measured level to halve.

In series [1] the test system is erythropoietin (EPO) production in Hep3B cells. The experiment in a line: Activity in inducing erythropoietin (EPO) production in vitro, Hep3B cells, EPO ELISA. The class given is cell-based. The conditions noted are these: Homo sapiens, 24 h, EPO in supernatant by ELISA. (In general: In an ELISA, binding on a coated surface is turned into a signal by an enzyme label.)

The nature of series [2]: Pharmacokinetic assay in male SD rats (iv and oral). The conditions noted are these: for F: po 5 mg/kg vs iv 1 mg/kg; for AUC(0-t) / Cmax / Tmax / clearance / half-life / Vd: rat, plasma; for Vd: read-out: Vss. The class given is in vivo. The method, then:
Preparation of test compound solutions: the test compound solution was prepared for oral and intravenous administration by using 5% DMSO, 5% Solutol HS 15 and 90% normal saline.
Male SD rats weighing 190-250 g were randomly divided into two groups, and each group had three rats; one group was administered with test compound at a dose of 1.0 mg/kg by intravenous injection, the other group was administered with test compound at a dose of 5.0 mg/kg by oral. After administering, blood samples were collected at time points of 0.0833, 0.25, 0.5, 1.0, 2.0, 4.0, 7.0 and 24 h. Standard curve was plotted based on concentrations of the samples in a suitable range, and the concentrations of test compounds in plasma samples were determined by using AB SCIEX API4000 LC-MS/MS in MRM mode. Pharmacokinetic parameters were calculated according to drug concentration−time curve using a noncompartmental method with WinNonLin 6.3 software.

The structures appear in SMILES notation. pEC50: −log10 of the molar value.

`Cn1c(=O)c(C(=O)NCC(=O)O)c(O)c2ccc(Oc3cc(F)ccc3F)cc21` [Example 19, 2-(7-(2,5-difluorophenoxy)-4-hydroxy-1-methyl-2-oxo-1,2-dihydroquinoline-3-carboxamido)acetic acid] gave a pEC50 in series [1] of 5.65. For the same compound, the F in series [2] is listed as 98.7%. In series [2] (iv, 1 mg/kg), the AUC(0-t) was 8260 ng·h/mL, the Cmax came to 6080 ng/mL, the Tmax stood at 4.98 min and the clearance stood at 2.06 mL/min/kg. Also, in series [2] (iv, 1 mg/kg), the half-life was 65.4 min and the Vd was determined as 0.164 L/kg. In series [2] (po, 5 mg/kg), the AUC(0-t) turned out to be 41000 ng·h/mL, the Cmax turned out to be 9560 ng/mL, the Tmax came out at 30 min and the half-life is 84 min.

As to `Cn1c(=O)c(C(=O)NCC(=O)O)c(O)c2ccc(Oc3ccccc3)cc21` [Example 1, 2-(4-hydroxy-1-methyl-2-oxo-7-phenoxy-1,2-dihydroquinoline-3-carboxamido)acetic acid], the negative logarithm of the EC50 (pEC50) in series [1] was 5.27. Further, the F in series [2] amounted to 81.5%. In series [2] (iv, 1 mg/kg), the AUC(0-t) is 9340 ng·h/mL, the Cmax was determined as 8910 ng/mL, the Tmax is 4.98 min and the clearance stood at 1.77 mL/min/kg. For the same compound, in series [2] (iv, 1 mg/kg), the half-life is 467 min and the Vd stood at 0.234 L/kg. In series [2] (po, 5 mg/kg), the AUC(0-t) was found to be 38400 ng·h/mL, the Cmax came out at 18400 ng/mL, the Tmax worked out at 40 min and the half-life was 252 min.
